In test [1] the target is T1, HIV-1 myrMA (Human immunodeficiency virus type 1 group M subtype B, UniProt P12493). To be noted: for binding to myrMA (changes in NMR spectra upon titration): 1H-15N HSQC titration; for triggering of myristate exposure: NMR; for Kd: read-out: dissociation constant (Kd), fit to 1:1 binding isotherms, 35° C., pH 5.5. The method, then: (§1) HIV-1 myrMA and myr(−)MA proteins were prepared as described (19, 37). Phosphoinositides PI(4,5)P2, di-C4-PI(4,5)P2, di-C8-PI(4,5)P2, di-C4-PI, di-C4-PI(3)P, di-C4-PI(4)P, di-C4-PI(5)P, di-C4-PI(3,5)P2, di-C8-PI(3,4,5)P2, and di-C4-PI (Echelon, Salt Lake City, Utah) and di-C4-phosphatidylcholine (Avanti Polar Lipids) were obtained commercially and used without further purification. Samples for all NMR experiments were prepared in 50 mM sodium phosphate at pH 5.5 and 5 mM DTT.
(§2) NMR data [Bruker DRX (Billerica, Mass.); 800 MHz ^1H and DMX 600 MHz ^1H spectrometers equipped with cryoprobes] were obtained from a combination of 2D, 3D, and 4D NOESY data, for combinations of natural abundance; ^15N-, ^15N-, and ^13C-labeled protein samples (35° C.). Protein signals were assigned as described (19, 37). Phosphoinositide signals were assigned from 2D heteronuclear multiple-quantum coherence (HMQC), heteronuclear multiple bond correlation (HMBC), NOESY, total correlation spectroscopy (TOCSY), and COSY data (the ^1H and ^13C NMR signals of the 1′- and 2′-acyl chains were resolved in the 2D spectra), and intra- and intermolecular ^1H-^1H NOEs were assigned from 2D (^1H-^1H), 3D (^13C-, ^15N-, and ^13C-edited/^12C-double-half-filtered), and 4D ([…] and ^13C/^13C-edited) NOESY data (39, 40). Binding isotherms from ^1H-^15N NMR HSQC titration experiments were calculated with ORIGIN 7.0 software (Microcal Software, Northampton, Mass.).

Test [2] addresses T1, HIV-1 myrMA. The class given is binding. Details: mediated by the matrix (MA) domain of Gag, a 132-residue polypeptide containing an N-terminal myristyl group; made in house. The note with it: for Kd: fit to 1:1 binding isotherms, read-out: dissociation constant (Kd). As to the method: as §1, §2

Several values for one entry are separate records, joined by “and”; a condition that tells them apart may be missing. Equal values may be shown once. Read-outs that look alike come from different tables or passages of the source.

Turning to `CCCC(=O)OC[C@H](COP(=O)(O)O[C@@H]1[C@H](O)[C@H](OP(=O)(O)O)[C@@H](O)[C@H](O)[C@H]1O)OC(=O)CCC` [di-C4-PI(3)P], on HIV-1 myrMA [1], the “binding to myrMA (changes in NMR spectra upon titration)” value is recorded as “No detectable changes”.
In general, Kd refers to the constant that tells how readily two partners part at equilibrium. Consider `CCCC(=O)OC[C@H](COP(=O)(O)O[C@H]1[C@H](O)[C@@H](OP(=O)(O)O)[C@H](OP(=O)(O)O)[C@@H](OP(=O)(O)O)[C@H]1O)OC(=O)CCC` [di-C4-PI(3,4,5)P3], for which, at HIV-1 myrMA [1] (myrMA), the “triggering of myristate exposure” value was “triggers myristate exposure” and the Kd is 81 ± 18 µM.
Consider `CCCC(=O)OCC(COP(=O)(O)OC1C(O)C(OP(=O)(O)O)C(O)C(OP(=O)(O)O)C1O)OC(=O)CCC` (stereo not drawn) [di-C4-PI(3,5)P2], for which the “binding to myrMA (changes in NMR spectra upon titration)” value at HIV-1 myrMA [1] is “does not bind”. Besides, the “triggering of myristate exposure” value on HIV-1 myrMA [1] (myrMA) is listed as “does not bind myrMA or trigger myristate exposure”.
`CCCC(=O)OCC(COP(=O)(O)OC1C(O)C(O)C(OP(=O)(O)O)C(O)C1O)OC(=O)CCC` (stereo not drawn) [di-C4-PI(4)P]: the “binding to myrMA (changes in NMR spectra upon titration)” value at HIV-1 myrMA [1] is listed as “No detectable changes”.
For the molecule `CCCC(=O)OC[C@H](COP(=O)(O)O[C@@H]1[C@H](O)[C@H](O)[C@@H](OP(=O)(O)O)[C@H](OP(=O)(O)O)[C@H]1O)OC(=O)CCC` [di-C4-PI(4,5)P2, di-butyryl-PI(4,5)P2], on HIV-1 myrMA [1] (myrMA), the “triggering of myristate exposure” value is “causes extrusion of the myristyl group” and the Kd was determined as 150 ± 30 µM. The “chemical-shift changes ΔδHN of group 1 residues” value at HIV-1 myrMA [1] (myrMA, upon addition of the lipid) is 0.1-0.8 ppm. Besides, on HIV-1 myrMA [2], the dissociation constant Kd came out at 240 ± 60 µM.
Take `CCCC(=O)OCC(COP(=O)(O)OC1C(O)C(O)C(O)C(OP(=O)(O)O)C1O)OC(=O)CCC` (stereo not drawn) [di-C4-PI(5)P]: the “binding to myrMA (changes in NMR spectra upon titration)” value on HIV-1 myrMA [1] is recorded as “No detectable changes”.
The same measure, in the same setting: in the case of `CCCC(=O)OC[C@H](COP(=O)(O)OC1[C@H](O)[C@H](O)C(O)[C@H](O)[C@H]1O)OC(=O)CCC` (stereo partly drawn) [di-C4-PI] it was “No detectable changes”.
On the same count and under the same terms, in the case of `CCCC(=O)OC[C@H](COP(=O)([O-])OCC[N+](C)(C)C)OC(=O)CCC` [di-C4-phosphatidylcholine] it was “does not bind”.
Consider `CCCCCCCC(=O)OC[C@H](COP(=O)(O)O[C@@H]1[C@H](O)[C@H](O)[C@@H](OP(=O)(O)O)[C@H](OP(=O)(O)O)[C@H]1O)OC(=O)CCCCCCC` [di-C8-PI(4,5)P2, di-octyl-PI(4,5)P2], for which, at HIV-1 myrMA [2], the “affinity for myr(−)MA relative to di-C4-PI(4,5)P2” value is 3 fold and > 3 fold; the equilibrium dissociation constant (Kd) amounted to 83 ± 4 µM.
With PI(3)P, the “binding to myrMA (changes in NMR spectra upon titration)” value at HIV-1 myrMA [1] is “do not bind MA with significant affinity”. Further, on HIV-1 myrMA [1] (myrMA), the “triggering of myristate exposure” value was “do not bind MA with significant affinity or trigger myristate exposure”.
The corresponding values for PI(3,5)P2 are “do not bind MA with significant affinity” and “do not bind MA with significant affinity or trigger myristate exposure”.
The corresponding values for PI(4)P are “do not bind MA with significant affinity” and “do not bind MA with significant affinity or trigger myristate exposure”.
Turning to PI(5)P, at HIV-1 myrMA [1], the “binding to myrMA (changes in NMR spectra upon titration)” value is given as “do not bind MA with significant affinity”.
For the molecule “phosphatidylinositol (PI)4,5-bisphosphate [PI(4,5)P2]”, on HIV-1 myrMA [1], the “binding to myrMA (changes in NMR spectra upon titration)” value was “binds directly”. At HIV-1 myrMA [1] (myrMA), the “triggering of myristate exposure” value is given as “triggers myristate exposure”.
